Experimental data published in patent US12358886B2, “Heterocyclic compounds for use in the treatment of cancer” (Artios Pharma Limited, priority 2019, dated 2025).

What follows are compounds tested against Polθ protein (amino acids 2-2590) (Homo sapiens, UniProt O75417) (assay: Polθ full length enzyme potency assay (PicoGreen)). Conditions: Polθ IC50 (nM), full length N-His, C-term FLAG tagged Polθ, PicoGreen fluorescence, 12 point concentration response.
Polθ protein (amino acids 2-2590), sequence (O75417 2-2590): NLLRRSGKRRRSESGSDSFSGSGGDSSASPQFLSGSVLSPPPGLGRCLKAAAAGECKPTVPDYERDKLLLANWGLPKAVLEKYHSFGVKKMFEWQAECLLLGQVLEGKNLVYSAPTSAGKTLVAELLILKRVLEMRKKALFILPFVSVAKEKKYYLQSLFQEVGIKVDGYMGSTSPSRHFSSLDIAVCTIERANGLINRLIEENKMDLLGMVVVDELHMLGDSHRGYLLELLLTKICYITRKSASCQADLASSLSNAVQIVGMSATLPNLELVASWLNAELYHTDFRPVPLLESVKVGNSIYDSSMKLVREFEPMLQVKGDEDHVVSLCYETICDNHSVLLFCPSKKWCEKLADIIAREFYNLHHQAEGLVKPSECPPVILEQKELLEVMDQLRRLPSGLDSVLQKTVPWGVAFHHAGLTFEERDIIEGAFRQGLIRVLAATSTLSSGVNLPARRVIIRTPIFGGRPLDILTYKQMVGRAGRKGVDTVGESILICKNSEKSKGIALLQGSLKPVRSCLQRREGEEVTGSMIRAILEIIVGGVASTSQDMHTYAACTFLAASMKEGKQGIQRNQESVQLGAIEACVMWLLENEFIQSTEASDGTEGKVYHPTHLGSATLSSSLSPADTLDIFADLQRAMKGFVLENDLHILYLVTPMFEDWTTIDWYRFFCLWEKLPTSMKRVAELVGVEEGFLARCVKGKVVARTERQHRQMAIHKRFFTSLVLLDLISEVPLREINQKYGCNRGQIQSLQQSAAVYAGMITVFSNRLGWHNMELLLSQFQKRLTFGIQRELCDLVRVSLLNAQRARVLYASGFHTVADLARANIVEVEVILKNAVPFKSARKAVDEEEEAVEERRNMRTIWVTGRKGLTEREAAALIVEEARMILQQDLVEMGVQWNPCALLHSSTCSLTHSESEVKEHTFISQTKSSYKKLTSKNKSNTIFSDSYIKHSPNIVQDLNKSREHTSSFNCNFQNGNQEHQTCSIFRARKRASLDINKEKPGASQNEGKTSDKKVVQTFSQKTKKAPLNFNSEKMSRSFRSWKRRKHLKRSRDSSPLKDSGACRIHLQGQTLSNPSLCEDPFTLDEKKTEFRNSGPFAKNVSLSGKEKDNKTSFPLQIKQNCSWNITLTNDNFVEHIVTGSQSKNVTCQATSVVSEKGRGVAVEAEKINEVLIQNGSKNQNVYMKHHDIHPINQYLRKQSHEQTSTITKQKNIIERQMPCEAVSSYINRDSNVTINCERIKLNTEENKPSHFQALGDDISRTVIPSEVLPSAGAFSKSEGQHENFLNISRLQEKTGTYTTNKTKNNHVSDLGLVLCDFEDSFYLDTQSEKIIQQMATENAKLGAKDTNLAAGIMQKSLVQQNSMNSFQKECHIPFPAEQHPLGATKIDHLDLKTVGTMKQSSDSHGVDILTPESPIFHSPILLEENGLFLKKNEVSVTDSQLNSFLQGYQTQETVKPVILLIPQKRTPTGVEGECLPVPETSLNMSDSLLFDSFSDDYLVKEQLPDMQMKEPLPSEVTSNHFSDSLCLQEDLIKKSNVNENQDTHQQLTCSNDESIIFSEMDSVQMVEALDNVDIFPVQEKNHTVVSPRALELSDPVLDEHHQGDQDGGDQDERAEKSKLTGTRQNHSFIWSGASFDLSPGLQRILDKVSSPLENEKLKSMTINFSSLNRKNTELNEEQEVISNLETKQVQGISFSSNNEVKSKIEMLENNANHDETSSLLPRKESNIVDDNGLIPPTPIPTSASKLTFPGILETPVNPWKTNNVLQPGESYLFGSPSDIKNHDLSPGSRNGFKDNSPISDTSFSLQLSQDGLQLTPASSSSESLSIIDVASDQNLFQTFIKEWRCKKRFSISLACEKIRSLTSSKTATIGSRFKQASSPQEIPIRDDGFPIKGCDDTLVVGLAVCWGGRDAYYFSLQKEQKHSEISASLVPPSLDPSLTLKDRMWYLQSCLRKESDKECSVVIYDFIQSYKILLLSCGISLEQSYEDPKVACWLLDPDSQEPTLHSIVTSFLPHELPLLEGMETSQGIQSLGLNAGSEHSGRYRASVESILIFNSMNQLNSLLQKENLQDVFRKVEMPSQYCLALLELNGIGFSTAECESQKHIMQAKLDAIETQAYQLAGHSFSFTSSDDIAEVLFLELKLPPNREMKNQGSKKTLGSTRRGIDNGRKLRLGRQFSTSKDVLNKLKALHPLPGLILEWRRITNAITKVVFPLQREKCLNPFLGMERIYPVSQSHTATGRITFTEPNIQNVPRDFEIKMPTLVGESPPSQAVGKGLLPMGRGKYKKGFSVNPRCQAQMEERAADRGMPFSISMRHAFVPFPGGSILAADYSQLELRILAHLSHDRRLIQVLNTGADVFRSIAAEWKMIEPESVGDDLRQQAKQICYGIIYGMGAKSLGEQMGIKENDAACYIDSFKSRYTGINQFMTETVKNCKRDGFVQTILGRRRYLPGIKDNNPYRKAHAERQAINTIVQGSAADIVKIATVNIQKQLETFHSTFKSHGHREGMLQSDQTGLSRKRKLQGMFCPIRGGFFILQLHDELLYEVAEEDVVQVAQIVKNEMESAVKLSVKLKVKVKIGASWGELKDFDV

IC50 [nM]	Structure (SMILES)
48	Cc1cc(C(F)(F)F)cc(N2C(=O)[C@H](CN(C)C)C[C@@H]2C(=O)N(C)c2ccc(F)c(Cl)c2)n1 (stereo in doubt) [Example 78, (2R,4S)—N-(3-Chloro-4-fluorophenyl)-4-((dimethylamino)methyl)-N-methyl-1-(6-methyl-4-(trifluoromethyl)pyridin-2-yl)-5-oxopyrrolidine-2-carboxamide]
90	Cc1cc(C(F)(F)F)cc(N2C(=O)[C@@H](CN(C)C)C[C@@H]2C(=O)N(C)c2ccc(F)c(Cl)c2)n1 (stereo in doubt) [Example 79, (2R,4R)—N-(3-Chloro-4-fluorophenyl)-4-((dimethylamino)methyl)-N-methyl-1-(6-methyl-4-(trifluoromethyl)pyridin-2-yl)-5-oxopyrrolidine-2-carboxamide]
8	Cc1cc(C(F)(F)F)cc(N2C(=O)N(CC(O)CN3CCC(F)C3)C[C@H]2C(=O)N(C)c2ccc(F)c(Cl)c2F)n1 (stereo in doubt) [Example 215, (4S)—N-(3-Chloro-2,4-difluorophenyl)-1-(3-((R)-3-fluoropyrrolidin-1-yl)-2-hydroxy-propyl)-N-methyl-3-(6-methyl-4-(trifluoromethyl)pyridin-2-yl)-2-oxoimidazolidine-4-carboxamide]
72	Cc1cc(C(F)(F)F)c(C#N)c(N2CCC[C@H]2C(=O)N(C)c2ccccc2)n1 [Example 1, (S)-1-(3-Cyano-6-methyl-4-(trifluoromethyl)pyridin-2-yl)-N-methyl-N-phenylpyrrolidine-2-carboxamide]
9	Cc1cccc(N(C(=O)[C@@H]2CCCN2c2nc(C)cc(C(F)(F)F)c2C#N)C(C)C)c1 [Example 2, (S)-1-(3-Cyano-6-methyl-4-(trifluoromethyl)pyridin-2-yl)-N-isopropyl-N-(m-tolyl)pyrrolidine-2-carboxamide]
288	Cc1cc(C)c(C#N)c(N2C[C@@H](O)C[C@H]2C(=O)N(C)c2ccc(F)c(F)c2)n1 [Example 4, (2S,4S)-1-(3-Cyano-4,6-dimethylpyridin-2-yl)-N-(3,4-difluorophenyl)-4-hydroxy-N-methylpyrrolidine-2-carboxamide]
11	Cc1cc(C(F)(F)F)c(C#N)c(N2C[C@@H](O)C[C@H]2C(=O)N(C)c2ccc(F)c(C)c2)n1 [Example 6, (2S,4S)-1-(3-Cyano-6-methyl-4-(trifluoromethyl)pyridin-2-yl)-N-(4-fluoro-3-methylphenyl)-4-hydroxy-N-methylpyrrolidine-2-carboxamide]
438	Cc1cc(C)c(C#N)c(N2C[C@@H](O)C[C@H]2C(=O)N(C)c2ccccc2)n1 [Example 7, (2S,4S)-1-(3-Cyano-4,6-dimethylpyridin-2-yl)-4-hydroxy-N-methyl-N-phenylpyrrolidine-2-carboxamide]
180	Cc1cc(C(F)(F)F)c(C#N)c(N2C[C@@H](O)C[C@H]2C(=O)N(C)c2ccccc2)n1 [Example 8, (2S,4S)-1-(3-Cyano-6-methyl-4-(trifluoromethyl)pyridin-2-yl)-4-hydroxy-N-methyl-N-phenylpyrrolidine-2-carboxamide]
87	Cc1cccc(N(C)C(=O)[C@@H]2C[C@H](O)CN2c2nc(C)cc(C)c2C#N)c1 [Example 9, (2S,4S)-1-(3-Cyano-4,6-dimethylpyridin-2-yl)-4-hydroxy-N-methyl-N-(m-tolyl)pyrrolidine-2-carboxamide]
316	Cc1cc(C)c(C#N)c(N2C[C@@H](O)C[C@H]2C(=O)N(C)c2ccc(F)c(C(F)(F)F)c2)n1 [Example 10, (2S,4S)-1-(3-Cyano-4,6-dimethylpyridin-2-yl)-N-(4-fluoro-3-(trifluoromethyl)phenyl)-4-hydroxy-N-methylpyrrolidine-2-carboxamide]
452	Cc1cc(C)c(C#N)c(N2C[C@@H](O)C[C@H]2C(=O)N(C)c2cccc(CF)c2)n1 [Example 11, (2S,4S)-1-(3-Cyano-4,6-dimethylpyridin-2-yl)-N-(3-(fluoromethyl)phenyl)-4-hydroxy-N-methylpyrrolidine-2-carboxamide]
710	Cc1cc(C)c(C#N)c(N2C[C@@H](O)C[C@H]2C(=O)N(C)c2cccc(C(F)F)c2)n1 [Example 12, (2S,4S)-1-(3-Cyano-4,6-dimethylpyridin-2-yl)-N-(3-(difluoromethyl)phenyl)-4-hydroxy-N-methylpyrrolidine-2-carboxamide]
180	Cc1cc(C)c(C#N)c(N2C[C@@H](O)C[C@H]2C(=O)N(C)c2cccc(Cl)c2)n1 [Example 13, (2S,4S)-N-(3-Chlorophenyl)-1-(3-cyano-4,6-dimethylpyridin-2-yl)-4-hydroxy-N-methylpyrrolidine-2-carboxamide]
415	Cc1cc(C)c(C#N)c(N2C[C@@H](O)C[C@H]2C(=O)N(C)c2ccc(F)c(CF)c2)n1 [Example 14, (2S,4S)-1-(3-Cyano-4,6-dimethylpyridin-2-yl)-N-(4-fluoro-3-(fluoromethyl)phenyl)-4-hydroxy-N-methylpyrrolidine-2-carboxamide]
57	Cc1cc(C(F)(F)F)c(C#N)c(N2C[C@@H](O)C[C@H]2C(=O)N(C)c2ccc(F)c(CF)c2)n1 [Example 15, (2S,4S)-1-(3-Cyano-6-methyl-4-(trifluoromethyl)pyridin-2-yl)-N-(4-fluoro-3-(fluoromethyl)-phenyl)-4-hydroxy-N-methyl-pyrrolidine-2-carboxamide]
274	COc1cc(N(C)C(=O)[C@@H]2C[C@H](O)CN2c2nc(C)cc(C(F)(F)F)c2C#N)ccc1F [Example 16, (2S,4S)-1-(3-Cyano-6-methyl-4-(trifluoromethyl)pyridin-2-yl)-N-(4-fluoro-3-methoxyphenyl)-4-hydroxy-N-methylpyrrolidine-2-carboxamide]
97	Cc1cc(C(F)(F)F)c(C#N)c(N2C[C@@H](O)C[C@H]2C(=O)N(C)c2cc(F)cc(F)c2)n1 [Example 17, (2S,4S)-1-(3-Cyano-6-methyl-4-(trifluoromethyl)pyridin-2-yl)-N-(3,5-difluorophenyl)-4-hydroxy-N-methylpyrrolidine-2-carboxamide]
33	Cc1cc(C(F)(F)F)c(C#N)c(N2C[C@@H](O)C[C@H]2C(=O)N(C)c2ccc(Cl)c(F)c2)n1 [Example 18, (2S,4S)-N-(4-Chloro-3-fluorophenyl)-1-(3-cyano-6-methyl-4-(trifluoromethyl)pyridin-2-yl)-4-hydroxy-N-methyl-pyrrolidine-2-carboxamide]
524	Cc1cc(C(F)(F)F)c(C#N)c(N2C[C@@H](O)C[C@H]2C(=O)N(C)c2ccc(C(F)(F)F)c(F)c2)n1 [Example 19, (2S,4S)-1-(3-Cyano-6-methyl-4-(trifluoromethyl)pyridin-2-yl)-N-(3-fluoro-4-(trifluoromethyl)-phenyl)-4-hydroxy-N-methyl-pyrrolidine-2-carboxamide]
67	Cc1cc(C(F)(F)F)c(C#N)c(N2C[C@@H](O)C[C@H]2C(=O)N(C)c2cc(F)c(F)cc2F)n1 [Example 20, (2S,4S)-1-(3-Cyano-6-methyl-4-(trifluoromethyl)pyridin-2-yl)-4-hydroxy-N-methyl-N-(2,4,5-trifluorophenyl)pyrrolidine-2-carboxamide]
77	CCN(C(=O)[C@@H]1C[C@H](O)CN1c1nc(C)cc(C)c1C#N)c1cccc(C)c1 [Example 21, (2S,4S)-1-(3-Cyano-4,6-dimethylpyridin-2-yl)-N-ethyl-4-hydroxy-N-(m-tolyl)pyrrolidine-2-carboxamide]
9	Cc1cccc(N(C)C(=O)[C@@H]2[C@H](O)CCN2c2nc(C)cc(C(F)(F)F)c2C#N)c1 [Example 24, (2S,3R)-1-(3-Cyano-6-methyl-4-(trifluoromethyl)pyridin-2-yl)-3-hydroxy-N-methyl-N-(m-tolyl)pyrrolidine-2-carboxamide]
32	Cc1cccc(N(C)C(=O)[C@@H]2[C@H](O)CCN2c2nc(C)cc(C)c2C#N)c1 [Example 25, (2S,3R)-1-(3-Cyano-4,6-dimethylpyridin-2-yl)-3-hydroxy-N-methyl-N-(m-tolyl)pyrrolidine-2-carboxamide]
12	Cc1cccc(N(C)C(=O)[C@@H]2C[C@H](O)CN2c2cc(C(F)(F)F)cc(C)n2)c1 [Example 27, (2S,4S)-4-Hydroxy-N-methyl-1-(6-methyl-4-(trifluoromethyl)pyridin-2-yl)-N-(m-tolyl)pyrrolidine-2-carboxamide]
48	Cc1cccc(N(C)C(=O)[C@@H]2C[C@H](O)CN2c2cc(C(C)C)cc(C)n2)c1 [Example 28, (2S,4S)-4-Hydroxy-1-(4-isopropyl-6-methylpyridin-2-yl)-N-methyl-N-(m-tolyl)pyrrolidine-2-carboxamide]
172	Cc1cccc(N(C)C(=O)[C@@H]2C[C@H](O)CN2c2cc(C)c(Cl)c(C)n2)c1 [Example 29, (2S,4S)-1-(5-Chloro-4,6-dimethylpyridin-2-yl)-4-hydroxy-N-methyl-N-(m-tolyl)pyrrolidine-2-carboxamide]

Same assay, conditions: read-out: Polθ IC50; full length N-His, C-term FLAG tagged Polθ, PicoGreen fluorescence, 12 point concentration response

IC50 [nM]	Structure (SMILES)
16	Cc1cc(C(F)(F)F)c(C#N)c(N2C[C@@H](O)C[C@H]2C(=O)N(C)c2ccc(F)c(Cl)c2)n1 [Example 5, (2S,4S)—N-(3-Chloro-4-fluorophenyl)-1-(3-cyano-6-methyl-4-(trifluoro-methyl)pyridin-2-yl)-4-hydroxy-N-methylpyrrolidine-2-carboxamide]
27	CCN(C(=O)[C@@H]1C[C@H](O)CN1c1nc(C)cc(C(F)(F)F)c1C#N)c1cccc(C)c1 [Example 22, (2S,4S)-1-(3-Cyano-6-methyl-4-(trifluoromethyl)pyridin-2-yl)-N-ethyl-4-hydroxy-N-(m-tolyl)-pyrrolidine-2-carboxamide]
61	Cc1cccc(N(C)C(=O)[C@@H]2[C@@H](O)CCN2c2nc(C)cc(C(F)(F)F)c2C#N)c1 [Example 26, (2S,3S)-1-(3-Cyano-6-methyl-4-(trifluoromethyl)pyridin-2-yl)-3-hydroxy-N-methyl-N-(m-tolyl)pyrrolidine-2-carboxamide]
